Values after ≈ are worked out from the molar mass of the structure shown. Structures can show the parent of a compound that is named as a salt.
Columns and labels:
[1] = Solubility test (Japanese Pharmacopoeia Solution I); type: physicochemical; settings: simulated gastric fluid, kinetic from dmso stock, pH 1.2, filtrate through 0.2-μm filter, HPLC
Experimental: Each test compound was dissolved in acetonitrile to form a 100 μM solution, and the solution was added to Japanese Pharmacopoeia Solution I to form a 1000 ng/mL solution. The resultant solution was stirred for ten minutes, and an aliquot (1 mL) was placed into an injection tube and then passed through a 0.2-μm filter (HLC-DISK 13, water/solvent, Kanto Kagaku Kabushiki-kaisya). The filtrate (0.5 mL) was subjected to the extraction procedure*, and the amount of the test compound was determined through HPLC.
(§1) The extraction was performed in a manner similar to that of the test on stability against metabolism in human liver microsome.

[2] = Test on stability against metabolism in human liver microsome; type: in vitro ADME; settings: 30 minutes after initiation of reaction, 37° C., FIG. 1
Experimental: In accordance with Table 2 described below, an NRS (NADPH regenerating system) solution and 16% human serum albumin were added to 0.1 mol/L phosphate buffer (pH 7.4), and a solution of a test compound (100 μM) in acetonitrile (0.01 mL) was added thereto. The mixture was pre-incubated for five minutes in a warm bath at 37° C., and human liver microsome (POOLED HUMAN LIVER MICROSOMES, Lot. No. 20, product of GENTEST) was added thereto, followed by allowing reaction for 30 minutes in a warm bath at 37° C. An aliquot (0.25 mL) was collected from the reaction mixture 0 and 30 minutes after the start of reaction, followed by extraction*. The amount of the test compound was determined through HPLC. Residual percentage of the unchanged compound after 30 minutes was calculated based on the following equation: peak area after 30 minutes/peak area at 0 minute)×100.
To each sample, gkycine buffer (pH 10, 1.0 mL), an internal standard substance (0.1 mL), and tert-butyl methyl ether (5.0 mL) were added. The mixture was shaken for ten minutes and then centrifuged at 2,500 rpm […], and the […] was collected.

ACAT = target: T1, ACAT (Mus musculus, UniProt Q61263); experiment: Test for ACAT inhibitory activity in J774A cells (cholesterol ester production); type: cell-based
T1 construct: endogenous in cells; host or cells: J774 (J774A) cells
T1 sequence (Q61263 1-540): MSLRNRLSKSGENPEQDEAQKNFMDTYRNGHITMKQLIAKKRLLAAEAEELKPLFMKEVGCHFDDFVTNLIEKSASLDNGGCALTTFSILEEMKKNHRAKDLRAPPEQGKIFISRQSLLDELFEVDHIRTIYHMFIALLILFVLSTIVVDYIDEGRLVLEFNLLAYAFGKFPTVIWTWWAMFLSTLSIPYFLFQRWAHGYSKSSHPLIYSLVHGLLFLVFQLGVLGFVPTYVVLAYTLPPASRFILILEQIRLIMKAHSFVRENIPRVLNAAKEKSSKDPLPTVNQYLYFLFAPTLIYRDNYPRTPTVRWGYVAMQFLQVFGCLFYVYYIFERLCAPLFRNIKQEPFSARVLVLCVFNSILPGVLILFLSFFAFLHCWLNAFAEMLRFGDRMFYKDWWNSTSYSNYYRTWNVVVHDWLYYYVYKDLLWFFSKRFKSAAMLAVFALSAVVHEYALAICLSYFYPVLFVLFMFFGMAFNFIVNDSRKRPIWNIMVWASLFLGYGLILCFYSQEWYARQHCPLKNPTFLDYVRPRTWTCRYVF
Experimental: J774 cells (2×10^5 cells/well) were seeded on a 24-well plate and incubated for 24 hours in DMEM (10% FBS, 500 μL). After replacement with a new medium, 25-hydroxycholesterol (10 μg/mL) and ACAT inhibitor (final concentration: 0, 10^−9 to 10^−5 mol/L) were added thereto, followed by incubation for 18 hours. After washing with 0.9% sodium chloride, the lipid was extracted with hexane-isopropanol (3:2) (250 μL) and then with hexane-isopropanol (3:2) (250 μL) again. The extracts were combined, and the solvent was removed. The thus-obtained cholesterol ester (CE) was quantified through the fluorescent enzyme assay. The cells from which the lipid had been extracted were subjected to protein assay (micro BCA assay), to thereby determine the amount of CE per mg of protein.

[3] = Oral administration test in rats (plasma levels); type: in vivo, rat; settings: 10 mg/kg p.o.
Experimental: Each test compound was dissolved in a 0.01N hydrochloric acid solution, and the solution was perorally administered to male or female rats at 10 mg/5 mL/kg. Blood samples (0.25 mL each) were collected 30, 60, 120, 180, 240, and 360 minutes after administration. The collected blood samples were centrifuged for five minutes at 4° C. and 9,000 g, to thereby prepare plasma samples. The plasma samples were stored at −30° C. before measurement. The samples were subjected to the extraction procedure*, and plasma levels of the test compound were determined through LC/MS/MS.
as §1

solubility at 10 min [1] [µg/mL] | melting point [°C] | residual percentage of the unchanged compound [2] [%] | IC50 (ACAT) [nM] | AUC ([3]; Female rat) [ng·h/mL] | Cmax ([3]; Female rat) [ng/mL] | AUC ([3]; Male rat) [ng·h/mL] | Cmax ([3]; Male rat) [ng/mL] | SMILES
0.562 (≈ 0.9 µM) | 182 to 182.7 | 27 | 87 | 5100 | 3410 | 367 | 418 | Cc1cc(OCC(F)(F)F)c(NC(=O)CN2CCN(CCSc3nc4ccc(F)cc4[nH]3)CC2)c(OCC(F)(F)F)n1 [Compound (1a), 2-[4-[2-(5-fluorobenzimidazol-2-ylthio)ethyl]piperazin-1-yl]-N-[2,4-bis(2,2,2-trifluoroethoxy)-6-methylpyridin-3-yl]acetamide]
0.422 (≈ 0.657 µM) | 191 to 192 | 62 | 75 | 6550 | 2840 | 917 | 614 | Cc1cc(OCC(F)(F)F)c(NC(=O)CN2CCN(CCSc3nc4cc(F)c(F)cc4[nH]3)CC2)c(OCC(F)(F)F)n1 [Compound (1b), 2-[4-[2-(5,6-difluorobenzimidazol-2-ylthio)ethyl]piperazin-1-yl]-N-[2,4-bis(2,2,2-trifluoroethoxy)-6-methylpyridin-3-yl]acetamide]
– | – | 16 | – | 2470 | 1170 | 200 | 207 | CSc1cc(C)nc(SC)c1NC(=O)CN1CCN(CCSc2nc3ccccc3[nH]2)CC1 [Compound (B).HCl, reference compound]

Source: US7223764B2, “2,4-bis (trifluoroethoxy)pyridine compound and drug containing the compound” (Kowa Co., Ltd., priority 2003, dated 2007)
